Reference: US10590178B2 (priority 2014, dated 2020)

Experiments:
Met6-8MAP = assay: Serum antibody ELISA after immunization, plates coated with Met6-8MAP; format: in vivo; details: after first booster; serum diluted 1:200; alum adjuvant; OD 492 nm
Method: Sera antibody titers were analyzed by ELISA. For DC-based immunization, the control groups were mice given DCs alone, or given DPBS alone, for all three injections. […] Fbb-8MAP or Met6-8MAP was dissolved at 5 μg/ml in PBS (pH 7.4), and used to coat 96-well ELISA plates with duplicate, serial, 2-fold dilutions of samples of each immune serum and control serum. Each well was treated with secondary antibody (goat anti-mouse polyvalent Ig-HRP, Sigma) and substrate (o-phenylenediamine and H2O2). Optical density was measured at 492 nm.
Serum samples were collected 14 days after immunization, diluted 1:200, and tested by ELISA on plates coated with the applicable peptide-8MAP conjugate. […] However, the immune responses to the MAP conjugates were substantially weaker than those induced by peptide-pulsed DC immunization.

C. albicans = assay: Chimeric double peptide-pulsed DC vaccination versus single peptides and mixture, lethal Candida challenge in mice (survival, kidney CFUs); details: for kidney CFUs: compared to non-immune mice / other vaccines
Method: Different groups of dendritic cells (DCs) were pulsed in vitro with Fba peptide, Met6 peptide, Fba-Met6 chimeric double peptide, or a mixture of the two peptides Fba and Met6. Briefly, DCs in culture were pulsed with the peptide antigen (1 μM) on day 6. On day 7, PGE2 (10^−7 M) was added along with LPS (2 μg/ml, Sigma) for 24 h. On day 9, antigen-pulsed DCs were washed extensively and 5×10^5 cells in 200 μl DPBS were injected into mice i.p. with complete Freund's adjuvant as the priming dose. The mice were boosted i.p. at day 14 with fresh antigen-pulsed DCs and adjuvant. The mice were again boosted i.p. at day 28 with fresh antigen-pulsed DCs, but the final boost used no adjuvant.
Two weeks after the second boost, immunized and control mice were both infected i.v. with a lethal dose of live C. albicans yeast cells (5×10^5 in 0.1 ml of DPBS), prepared as described above. Passively immunized mice (see below) also received the same challenge dose. Protection was evaluated by monitoring animal survival for 50-60 days. The mice were monitored for the development of a moribund state: defined as being listless, disinterested in food or water, and nonreactive to finger probing. Once a mouse was deemed moribund, it was sacrificed and its kidneys were homogenized in DPBS and plated onto a nutrient agar to determine the number of colony forming units of yeast (CFUs).

Row | Sequence | antibody response compared to negative control mice (DPBS or adjuvant only) (Met6-8MAP) | kidney CFUs (C. albicans; listed as Fba-Met6 chimeric double peptide vaccine) | kidney CFUs (C. albicans; listed as Fba-Met6 conjugate) | survival rate / protection (C. albicans; up to 60 days (end of experiment)) [%]
1 | PRIGGQRELKKITE (Met6 peptide) [14-mer peptide from C. albicans cell wall protein Met6] | 4-5 fold | – | – | –
2 | YGKDVKDLFDYAQEKKPRIGGQRELKKITE [Fba-KK-Met6] | – | only one mouse in that group exhibited any detectable kidney CFUs | much lower CFUs in kidneys | 100
